Test results reported in the NIST ThermoML archive (doi:10.1021/acs.jced.8b00554).

Assay: xn = mol fraction of the nth substance listed
Settings: Liquid, Vibrating tube method

CCCCCCCCC [nonane] + CCCO
mass density [kg/m3]
Settings	343.15 K	353.15 K
100 kPa, x2 = 0.1231	–	666.99
100 kPa, x2 = 0.2315	–	669.25
100 kPa, x2 = 0.3229	–	671.68
100 kPa, x2 = 0.4272	–	676.17
100 kPa, x2 = 0.7021	–	697.1
100 kPa, x2 = 0.8941	–	723.67
1000 kPa, x2 = 0.3229	–	672.91
1000 kPa, x2 = 0.4272	–	677.15
1000 kPa, x2 = 0.7021	–	697.4
1010 kPa, x2 = 0.1231	677.59	667.83
1010 kPa, x2 = 0.2315	–	670.69
1010 kPa, x2 = 0.4272	689.57	–
1010 kPa, x2 = 0.7021	711.27	–
1010 kPa, x2 = 0.8941	737.45	724.26
1020 kPa, x2 = 0.3229	684.46	–
2000 kPa, x2 = 0.1231	–	668.99
2000 kPa, x2 = 0.2315	–	671.87
2000 kPa, x2 = 0.3229	685.59	–
2010 kPa, x2 = 0.1231	678.71	–
2010 kPa, x2 = 0.2315	682.42	–
2010 kPa, x2 = 0.4272	690.68	678.31
2010 kPa, x2 = 0.7021	712.38	698.58
2010 kPa, x2 = 0.8941	738.5	–
2020 kPa, x2 = 0.3229	–	674.1
2020 kPa, x2 = 0.8941	–	725.38
3000 kPa, x2 = 0.3229	686.69	–
3000 kPa, x2 = 0.4272	691.79	–
3000 kPa, x2 = 0.7021	713.46	–
3010 kPa, x2 = 0.1231	679.8	–
3010 kPa, x2 = 0.2315	–	673.01
3010 kPa, x2 = 0.3229	–	675.25
3010 kPa, x2 = 0.4272	–	679.49
3010 kPa, x2 = 0.7021	–	699.75
3010 kPa, x2 = 0.8941	739.56	726.49
3020 kPa, x2 = 0.1231	–	670.15
3020 kPa, x2 = 0.2315	683.53	–
4000 kPa, x2 = 0.4272	–	680.67
4010 kPa, x2 = 0.1231	–	671.29
4010 kPa, x2 = 0.2315	684.63	–
4010 kPa, x2 = 0.3229	687.78	676.42
4010 kPa, x2 = 0.7021	714.57	700.94
4010 kPa, x2 = 0.8941	–	727.63
4020 kPa, x2 = 0.1231	680.88	–
4020 kPa, x2 = 0.2315	–	674.2
4020 kPa, x2 = 0.4272	692.9	–
4020 kPa, x2 = 0.8941	740.61	–
5000 kPa, x2 = 0.1231	681.97	–
5000 kPa, x2 = 0.4272	–	681.83
5000 kPa, x2 = 0.7021	715.67	–
5010 kPa, x2 = 0.1231	–	672.43
5010 kPa, x2 = 0.2315	–	675.32
5010 kPa, x2 = 0.3229	688.88	–
5010 kPa, x2 = 0.4272	694	–
5010 kPa, x2 = 0.7021	–	702.12
5010 kPa, x2 = 0.8941	741.67	728.78
5020 kPa, x2 = 0.2315	685.69	–
5020 kPa, x2 = 0.3229	–	677.57
6000 kPa, x2 = 0.1231	–	673.56
6000 kPa, x2 = 0.4272	–	683.02
6010 kPa, x2 = 0.1231	683.04	–
6010 kPa, x2 = 0.2315	–	676.43
6010 kPa, x2 = 0.3229	689.97	678.73
6010 kPa, x2 = 0.4272	695.09	–
6010 kPa, x2 = 0.7021	716.75	703.28
6010 kPa, x2 = 0.8941	–	729.91
6020 kPa, x2 = 0.2315	686.75	–
6020 kPa, x2 = 0.8941	742.73	–
7000 kPa, x2 = 0.2315	–	677.57
7000 kPa, x2 = 0.3229	691.04	–
7000 kPa, x2 = 0.8941	743.78	–
7010 kPa, x2 = 0.2315	687.82	–
7010 kPa, x2 = 0.3229	–	679.88
7010 kPa, x2 = 0.4272	696.18	–
7010 kPa, x2 = 0.8941	–	731.05
7020 kPa, x2 = 0.1231	684.1	674.7
7020 kPa, x2 = 0.4272	–	684.19
7020 kPa, x2 = 0.7021	717.84	704.46
8000 kPa, x2 = 0.2315	688.91	–
8000 kPa, x2 = 0.3229	–	681.03
8000 kPa, x2 = 0.7021	–	705.61
8000 kPa, x2 = 0.8941	744.82	–
8010 kPa, x2 = 0.1231	–	675.84
8010 kPa, x2 = 0.3229	692.11	–
8010 kPa, x2 = 0.4272	697.28	685.36
8010 kPa, x2 = 0.8941	–	732.17
8020 kPa, x2 = 0.1231	685.16	–
8020 kPa, x2 = 0.2315	–	678.73
8020 kPa, x2 = 0.7021	718.92	–
9000 kPa, x2 = 0.1231	–	676.94
9000 kPa, x2 = 0.2315	–	679.85
9010 kPa, x2 = 0.1231	686.2	–
9010 kPa, x2 = 0.2315	689.96	–
9010 kPa, x2 = 0.3229	693.2	682.18
9010 kPa, x2 = 0.4272	–	686.5
9010 kPa, x2 = 0.7021	–	706.79
9010 kPa, x2 = 0.8941	745.86	733.3
9020 kPa, x2 = 0.4272	698.35	–
9020 kPa, x2 = 0.7021	720.01	–
10000 kPa, x2 = 0.2315	690.99	680.95
10000 kPa, x2 = 0.4272	–	687.67
10000 kPa, x2 = 0.7021	721.05	–
10000 kPa, x2 = 0.8941	746.88	–
10010 kPa, x2 = 0.1231	687.25	678.03
10010 kPa, x2 = 0.3229	694.26	683.34
10010 kPa, x2 = 0.7021	–	707.93
10010 kPa, x2 = 0.8941	–	734.42
10020 kPa, x2 = 0.4272	699.44	–
11000 kPa, x2 = 0.3229	695.31	–
11000 kPa, x2 = 0.4272	700.47	–
11010 kPa, x2 = 0.1231	688.29	–
11010 kPa, x2 = 0.7021	722.11	–
11020 kPa, x2 = 0.2315	692.04	–
11020 kPa, x2 = 0.8941	747.91	–
12000 kPa, x2 = 0.3229	696.36	–
12010 kPa, x2 = 0.1231	689.31	–
12010 kPa, x2 = 0.2315	693.08	–
12010 kPa, x2 = 0.4272	701.53	–
12010 kPa, x2 = 0.8941	748.9	–
12020 kPa, x2 = 0.7021	723.13	–
13010 kPa, x2 = 0.4272	702.56	–
13010 kPa, x2 = 0.8941	749.87	–
13020 kPa, x2 = 0.1231	690.32	–
13020 kPa, x2 = 0.2315	694.1	–
13020 kPa, x2 = 0.3229	697.39	–
13020 kPa, x2 = 0.7021	724.18	–
14000 kPa, x2 = 0.1231	691.3	–
14000 kPa, x2 = 0.3229	698.41	–
14000 kPa, x2 = 0.8941	750.86	–
14010 kPa, x2 = 0.2315	695.1	–
14010 kPa, x2 = 0.7021	725.19	–
14020 kPa, x2 = 0.4272	703.57	–
15010 kPa, x2 = 0.1231	692.28	–
15010 kPa, x2 = 0.4272	704.56	–
15010 kPa, x2 = 0.7021	726.16	–
15010 kPa, x2 = 0.8941	751.83	–
15020 kPa, x2 = 0.2315	696.09	–
15020 kPa, x2 = 0.3229	699.39	–
16000 kPa, x2 = 0.8941	752.78	–
16010 kPa, x2 = 0.1231	693.22	–
16010 kPa, x2 = 0.7021	727.16	–
16020 kPa, x2 = 0.2315	697.06	–
16020 kPa, x2 = 0.3229	700.38	–
16020 kPa, x2 = 0.4272	705.54	–
17000 kPa, x2 = 0.1231	694.17	–
17000 kPa, x2 = 0.3229	701.35	–
17000 kPa, x2 = 0.4272	706.5	–
17010 kPa, x2 = 0.7021	728.12	–
17020 kPa, x2 = 0.2315	698.04	–
17020 kPa, x2 = 0.8941	753.71	–
18010 kPa, x2 = 0.1231	695.1	–
18010 kPa, x2 = 0.2315	698.96	–
18010 kPa, x2 = 0.7021	729.04	–
18020 kPa, x2 = 0.3229	702.27	–
18020 kPa, x2 = 0.4272	707.45	–
18020 kPa, x2 = 0.8941	754.62	–
19000 kPa, x2 = 0.2315	699.84	–
19000 kPa, x2 = 0.3229	703.2	–
19000 kPa, x2 = 0.7021	729.96	–
19000 kPa, x2 = 0.8941	755.52	–
19010 kPa, x2 = 0.1231	695.98	–
19010 kPa, x2 = 0.4272	708.36	–
20000 kPa, x2 = 0.4272	709.29	–
20010 kPa, x2 = 0.1231	696.86	–
20010 kPa, x2 = 0.2315	700.72	–
20010 kPa, x2 = 0.3229	704.07	–
20010 kPa, x2 = 0.7021	730.88	–
20020 kPa, x2 = 0.8941	756.41	–
